Measurements taken from US11208412B2 (DAEGU-GYEONGBUK MEDICAL INNOVATION FOUNDATION, priority 2017, dated 2021).

How the values were obtained:
Assay in all cases: Kinase selectivity, DiscoverX scanMAX Kinase assay panel (% control)
Assay type in all cases: binding
[1] = molecular target: T1, kinases of the scanMAX Kinase assay panel (Homo sapiens, UniProt Q8IW41); settings: MAPKAPK5; 1 uM
T1 construct: purchased DiscoverX Co. (contract measurement) scanMAX Kinase assay panel
T1 sequence (Q8IW41 1-473): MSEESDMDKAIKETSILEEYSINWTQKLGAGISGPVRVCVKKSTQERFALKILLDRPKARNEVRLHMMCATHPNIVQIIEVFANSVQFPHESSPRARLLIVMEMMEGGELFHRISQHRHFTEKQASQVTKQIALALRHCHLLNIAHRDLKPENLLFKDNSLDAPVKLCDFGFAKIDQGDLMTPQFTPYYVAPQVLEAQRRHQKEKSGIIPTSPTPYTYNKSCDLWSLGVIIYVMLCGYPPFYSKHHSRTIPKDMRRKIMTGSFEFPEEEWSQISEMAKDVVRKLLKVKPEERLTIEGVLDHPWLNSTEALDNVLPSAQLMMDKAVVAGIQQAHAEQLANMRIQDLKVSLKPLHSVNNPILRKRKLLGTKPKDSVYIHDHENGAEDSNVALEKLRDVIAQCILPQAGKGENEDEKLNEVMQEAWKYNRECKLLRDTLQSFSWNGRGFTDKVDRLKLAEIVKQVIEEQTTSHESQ
How it was run: (§1)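 Single-point screen, 1 uM cpd in DMSO. % ctrl = (cpd − pos ctrl)/(neg ctrl − pos ctrl)×100; pos ctrl = 0%, DMSO neg ctrl = 100%. Hit cutoff <35%.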

[2] = molecular target: T2, kinases of the scanMAX Kinase assay panel (Homo sapiens, UniProt Q13873); settings: BMPR2; 1 uM
T2 construct: purchased DiscoverX Co. (contract measurement) scanMAX Kinase assay panel
T2 sequence (Q13873 27-1038): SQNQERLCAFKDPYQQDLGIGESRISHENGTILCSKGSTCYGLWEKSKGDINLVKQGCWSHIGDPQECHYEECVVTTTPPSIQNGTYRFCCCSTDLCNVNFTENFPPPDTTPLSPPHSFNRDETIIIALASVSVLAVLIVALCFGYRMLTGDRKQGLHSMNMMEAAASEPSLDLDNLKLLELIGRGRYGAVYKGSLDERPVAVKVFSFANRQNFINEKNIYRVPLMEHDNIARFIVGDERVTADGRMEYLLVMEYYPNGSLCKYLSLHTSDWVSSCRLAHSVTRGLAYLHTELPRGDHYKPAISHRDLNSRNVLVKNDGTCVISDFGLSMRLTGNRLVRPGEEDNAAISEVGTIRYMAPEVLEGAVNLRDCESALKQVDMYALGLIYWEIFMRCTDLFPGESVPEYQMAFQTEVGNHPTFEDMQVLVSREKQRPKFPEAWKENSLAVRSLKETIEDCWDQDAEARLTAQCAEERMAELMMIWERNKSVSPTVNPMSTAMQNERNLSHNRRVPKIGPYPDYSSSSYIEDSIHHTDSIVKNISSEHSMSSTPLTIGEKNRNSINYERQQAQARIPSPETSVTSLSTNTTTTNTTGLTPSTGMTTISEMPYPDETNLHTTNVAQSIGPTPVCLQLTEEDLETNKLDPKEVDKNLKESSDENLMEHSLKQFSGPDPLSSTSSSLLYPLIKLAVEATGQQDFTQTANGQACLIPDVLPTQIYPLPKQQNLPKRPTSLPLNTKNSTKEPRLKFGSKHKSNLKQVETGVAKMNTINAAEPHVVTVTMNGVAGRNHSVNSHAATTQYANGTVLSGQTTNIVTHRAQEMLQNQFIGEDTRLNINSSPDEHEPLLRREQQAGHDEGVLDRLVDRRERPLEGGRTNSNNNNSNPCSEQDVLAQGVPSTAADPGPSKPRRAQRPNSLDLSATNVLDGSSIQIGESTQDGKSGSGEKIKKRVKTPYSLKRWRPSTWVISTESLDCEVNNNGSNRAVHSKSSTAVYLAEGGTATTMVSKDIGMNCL
How it was run: as §1

[3] = molecular target: T3, kinases of the scanMAX Kinase assay panel (Homo sapiens, UniProt P51817); settings: PRKX; 1 uM
T3 construct: purchased DiscoverX Co. (contract measurement) scanMAX Kinase assay panel
T3 sequence (P51817 1-358): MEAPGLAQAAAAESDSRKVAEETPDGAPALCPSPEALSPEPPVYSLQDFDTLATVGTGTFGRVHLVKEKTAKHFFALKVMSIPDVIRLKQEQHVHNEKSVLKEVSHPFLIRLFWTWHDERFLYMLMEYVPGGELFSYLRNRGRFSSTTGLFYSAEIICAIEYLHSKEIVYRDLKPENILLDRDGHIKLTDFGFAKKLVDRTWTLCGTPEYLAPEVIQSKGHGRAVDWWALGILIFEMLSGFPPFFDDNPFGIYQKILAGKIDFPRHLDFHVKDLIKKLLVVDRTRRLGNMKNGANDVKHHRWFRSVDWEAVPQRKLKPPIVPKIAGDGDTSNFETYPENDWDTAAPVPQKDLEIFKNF
How it was run: as §1

[4] = molecular target: T4, kinases of the scanMAX Kinase assay panel (Homo sapiens, UniProt Q9H4B4); settings: PLK3; 1 uM
T4 construct: purchased DiscoverX Co. (contract measurement) scanMAX Kinase assay panel
How it was run: as §1

[5] = molecular target: T5, kinases of the scanMAX Kinase assay panel (Homo sapiens, UniProt P00533, DEL746-750); settings: EGFR(E746-A750de1); 1 uM
T5 construct: purchased DiscoverX Co. (contract measurement) scanMAX Kinase assay panel
How it was run: as §1

[6] = molecular target: T6, kinases of the scanMAX Kinase assay panel (Homo sapiens, UniProt O00141); settings: kinase SGK; 1 uM in DMSO
T6 construct: purchased DiscoverX Co. (contract measurement) scanMAX Kinase assay panel
T6 sequence (O00141 1-431): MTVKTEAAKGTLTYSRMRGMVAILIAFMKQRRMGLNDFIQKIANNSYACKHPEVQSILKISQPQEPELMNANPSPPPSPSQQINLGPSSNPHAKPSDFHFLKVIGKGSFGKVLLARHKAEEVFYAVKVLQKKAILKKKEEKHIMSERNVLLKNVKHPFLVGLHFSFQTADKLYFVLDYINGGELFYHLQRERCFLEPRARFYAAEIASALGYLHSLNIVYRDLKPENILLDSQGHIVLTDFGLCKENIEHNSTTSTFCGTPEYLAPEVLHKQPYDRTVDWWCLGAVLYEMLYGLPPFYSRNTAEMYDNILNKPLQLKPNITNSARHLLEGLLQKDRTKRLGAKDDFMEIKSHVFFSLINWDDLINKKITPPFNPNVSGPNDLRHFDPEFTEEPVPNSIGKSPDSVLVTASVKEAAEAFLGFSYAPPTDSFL
How it was run: as §1

[7] = molecular target: T7, kinases of the scanMAX Kinase assay panel (Homo sapiens, UniProt Q04912); settings: MST1R; 1 uM
T7 construct: purchased DiscoverX Co. (contract measurement) scanMAX Kinase assay panel
How it was run: as §1

T5 sequence (P00533 with tags, fused parts or gaps DEL746-750): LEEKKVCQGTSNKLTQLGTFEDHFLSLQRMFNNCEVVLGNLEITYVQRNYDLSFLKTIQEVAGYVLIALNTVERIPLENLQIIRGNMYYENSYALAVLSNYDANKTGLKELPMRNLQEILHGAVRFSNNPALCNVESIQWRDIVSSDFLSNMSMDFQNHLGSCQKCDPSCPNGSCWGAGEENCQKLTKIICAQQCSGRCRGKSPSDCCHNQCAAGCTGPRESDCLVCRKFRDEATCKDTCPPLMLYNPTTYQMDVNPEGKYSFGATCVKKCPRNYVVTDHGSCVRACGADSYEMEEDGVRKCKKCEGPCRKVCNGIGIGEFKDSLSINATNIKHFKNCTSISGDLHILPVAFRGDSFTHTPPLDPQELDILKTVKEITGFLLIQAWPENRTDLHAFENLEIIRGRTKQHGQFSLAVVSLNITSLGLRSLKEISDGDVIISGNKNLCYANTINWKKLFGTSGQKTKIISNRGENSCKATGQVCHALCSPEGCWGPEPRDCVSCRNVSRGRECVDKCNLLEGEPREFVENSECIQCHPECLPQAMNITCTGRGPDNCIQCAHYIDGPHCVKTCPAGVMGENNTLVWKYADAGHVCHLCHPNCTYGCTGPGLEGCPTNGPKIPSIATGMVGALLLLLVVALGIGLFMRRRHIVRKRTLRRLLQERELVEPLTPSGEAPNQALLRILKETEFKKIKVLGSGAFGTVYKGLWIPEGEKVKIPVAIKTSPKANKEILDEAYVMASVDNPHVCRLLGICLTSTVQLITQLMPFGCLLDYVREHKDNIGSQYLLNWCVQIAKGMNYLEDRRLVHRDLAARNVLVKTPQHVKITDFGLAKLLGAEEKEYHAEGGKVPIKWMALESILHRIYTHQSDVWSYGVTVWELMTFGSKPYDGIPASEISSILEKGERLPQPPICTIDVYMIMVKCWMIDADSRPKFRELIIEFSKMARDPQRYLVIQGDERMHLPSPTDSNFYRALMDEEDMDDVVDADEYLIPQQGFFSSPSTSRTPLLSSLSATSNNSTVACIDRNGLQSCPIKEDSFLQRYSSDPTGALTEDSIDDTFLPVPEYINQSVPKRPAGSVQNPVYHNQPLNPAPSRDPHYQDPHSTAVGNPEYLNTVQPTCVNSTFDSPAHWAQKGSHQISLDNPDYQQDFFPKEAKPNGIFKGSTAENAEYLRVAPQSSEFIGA
T4 sequence (Q9H4B4 whole entry): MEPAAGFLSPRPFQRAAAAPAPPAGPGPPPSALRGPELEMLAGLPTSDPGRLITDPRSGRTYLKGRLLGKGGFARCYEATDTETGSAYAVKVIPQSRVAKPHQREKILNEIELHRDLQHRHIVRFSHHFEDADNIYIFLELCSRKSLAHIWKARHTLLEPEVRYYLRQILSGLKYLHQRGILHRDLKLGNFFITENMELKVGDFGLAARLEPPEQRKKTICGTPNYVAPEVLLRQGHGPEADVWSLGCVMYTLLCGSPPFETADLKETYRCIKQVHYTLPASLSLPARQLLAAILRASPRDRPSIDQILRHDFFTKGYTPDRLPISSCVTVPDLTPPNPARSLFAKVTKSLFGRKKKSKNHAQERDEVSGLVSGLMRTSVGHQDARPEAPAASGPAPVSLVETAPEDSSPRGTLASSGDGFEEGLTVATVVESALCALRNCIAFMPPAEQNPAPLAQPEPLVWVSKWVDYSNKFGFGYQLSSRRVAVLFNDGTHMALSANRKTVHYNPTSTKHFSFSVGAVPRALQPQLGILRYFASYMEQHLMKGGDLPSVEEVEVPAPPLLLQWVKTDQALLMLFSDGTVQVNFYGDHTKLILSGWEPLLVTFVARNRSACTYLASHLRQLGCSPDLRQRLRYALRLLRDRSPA
T7 sequence (Q04912 25-1400): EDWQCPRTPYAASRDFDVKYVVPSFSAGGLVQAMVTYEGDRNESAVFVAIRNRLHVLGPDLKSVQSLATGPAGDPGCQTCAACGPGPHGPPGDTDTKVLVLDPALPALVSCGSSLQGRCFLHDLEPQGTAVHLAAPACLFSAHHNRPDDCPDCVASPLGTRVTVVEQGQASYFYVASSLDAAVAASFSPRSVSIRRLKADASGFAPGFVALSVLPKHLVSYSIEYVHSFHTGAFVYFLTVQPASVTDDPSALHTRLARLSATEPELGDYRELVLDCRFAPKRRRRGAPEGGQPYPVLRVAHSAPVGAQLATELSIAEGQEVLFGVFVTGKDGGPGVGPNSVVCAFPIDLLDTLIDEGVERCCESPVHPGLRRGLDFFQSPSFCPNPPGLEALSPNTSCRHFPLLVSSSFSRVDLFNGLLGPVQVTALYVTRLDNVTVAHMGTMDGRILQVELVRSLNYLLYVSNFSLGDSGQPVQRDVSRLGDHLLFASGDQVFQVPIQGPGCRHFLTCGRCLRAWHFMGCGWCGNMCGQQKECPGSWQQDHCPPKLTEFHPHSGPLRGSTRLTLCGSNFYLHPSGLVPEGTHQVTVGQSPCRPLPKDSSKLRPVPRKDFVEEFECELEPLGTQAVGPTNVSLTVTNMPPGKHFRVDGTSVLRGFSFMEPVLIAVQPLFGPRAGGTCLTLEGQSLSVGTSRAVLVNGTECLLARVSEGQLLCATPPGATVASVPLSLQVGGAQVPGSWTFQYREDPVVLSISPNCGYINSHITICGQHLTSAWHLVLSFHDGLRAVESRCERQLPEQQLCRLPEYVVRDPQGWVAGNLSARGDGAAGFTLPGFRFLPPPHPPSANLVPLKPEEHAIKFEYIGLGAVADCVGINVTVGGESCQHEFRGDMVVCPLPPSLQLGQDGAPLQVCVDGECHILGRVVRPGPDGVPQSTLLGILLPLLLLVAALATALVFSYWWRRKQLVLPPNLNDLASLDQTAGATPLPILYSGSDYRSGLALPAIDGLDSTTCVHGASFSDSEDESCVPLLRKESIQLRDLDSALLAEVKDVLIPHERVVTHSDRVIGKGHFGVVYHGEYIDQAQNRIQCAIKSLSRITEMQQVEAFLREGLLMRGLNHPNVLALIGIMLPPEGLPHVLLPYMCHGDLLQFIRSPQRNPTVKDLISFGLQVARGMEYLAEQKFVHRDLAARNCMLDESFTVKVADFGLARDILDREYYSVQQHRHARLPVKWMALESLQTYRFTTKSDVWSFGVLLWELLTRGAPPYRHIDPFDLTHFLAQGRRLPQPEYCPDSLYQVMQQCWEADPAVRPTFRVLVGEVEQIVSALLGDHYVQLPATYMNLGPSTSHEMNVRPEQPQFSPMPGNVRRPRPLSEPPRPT

SMILES | remaining binding at 1 µM [1] [%] | remaining binding at 1 µM [2] [%] | remaining binding at 1 µM [3] [%] | remaining binding at 1 µM [4] [%] | remaining binding at 1 µM [5] [%] | remaining binding at 1 µM [6] [%] | remaining binding at 1 µM [7] [%]
CNc1nc(Nc2ccc(C(=O)N3CCOCC3)cc2OC)nc2[nH]cc(C#N)c12 [Example 1, 2-((2-methoxy-4-(morpholine-4-carbonyl)phenyl)amino)-4-(methylamino)-7H-pyrrolo[2,3-d]pyrimidine-5-carbonitrile] | 16 | 79 | 82 | 57 | 97 | 48 | 88
CC1(Nc2nc(Nc3cnn([C@H]4CCN(C5COC5)C[C@@H]4F)c3Cl)nc3[nH]cc(C#N)c23)CC1 [Example 52, 2-((5-chloro-1-((3S,4S)-3-fluoro-1-(oxetane-3-yl)piperidine-4-yl)-1H-pyrazole-4-yl)amino)((1-methylcyclopropyl)amino)-7H-pyrrolo[2,3-d]pyrimidine-5-carbonitrile] | 72 | 0.65 | 89 | 99 | 59 | 18 | 78
CCNc1nc(Nc2ccc(C(=O)N3CCC(N4CCOCC4)CC3)cc2OC)nc2[nH]cc(C(F)(F)F)c12 [Example 104, (4-((4-(ethylamino)-5-(trifluoromethyl)-7H-pyrrolo[2,3-d]pyrimidine-2-yl)amino)-3-methoxyphenyl)(4-morpholinopiperidine-1-yl)methanone] | 51 | 100 | 81 | 89 | 100 | 100 | 95
